The structures appear in SMILES notation.

The species named for experiment [1] is Cavia porcellus. Nature of the experiment: Inhibitory concentration of guinea pig ileum longitudinal muscle produced in response to electrically simulated release of acetylcholine. The format is functional, Muscle tissue.
The species named for experiment [2] is Cavia porcellus. The experiment can be described thus: Mean dissociation constant was measured for acetylcholine-induced contractions. The format is functional.
Experiment [3] is filed under the species Cavia porcellus. The experiment can be described thus: Inhibitory concentration of guinea pig ileum longitudinal muscle strips to antagonize electrically stimulated contractions. Particulars: Muscle tissue. The format is functional.

Broadly, the IC50 is the concentration at which inhibition is half-maximal. A higher IC50 goes with weaker potency in that assay. Compound `CC(C)NCC[C@@](C(N)=O)(c1ccccc1)c1ccccn1` (stereo in doubt; 2 (2R)) yielded an IC50 in the experiment listed under Cavia porcellus [1] of 14 µM.

`CC(C)NCC[C@@](C(N)=O)(c1ccccc1)c1ccccn1` (stereo in doubt; 2 (2S)) yielded an IC50 in the experiment filed under Cavia porcellus [1] of 5 µM. `CC(C)N(CC[C@](C(N)=O)(c1ccccc1)c1ccccn1)C(C)C` [(S)-DISOPYRAMIDE] yielded an IC50 in the experiment filed under Cavia porcellus [1] (Cavia porcellus, Muscle tissue) of 4.5 µM. One may read the Kd as the equilibrium constant for the complex coming apart. Higher therefore signals a looser complex. In the experiment listed under Cavia porcellus [2], `CC(C)N(CCC(C(N)=O)(c1ccccc1)c1ccccn1)C(C)C` (configuration not stated) [DISOPYRAMIDE] returned a Kd of 2.2 µM. Also, the 50% inhibitory concentration (IC50) in the experiment listed under Cavia porcellus [3] stood at 1.5 µM. For `CC(C)NCCC(C(N)=O)(c1ccccc1)c1ccccn1` (configuration not stated) [N-MONODEISOPROPYL DISOPYRAMIDE] the same measures were 3.8 µM and 3.2 µM.

Values taken from ChEMBL document CHEMBL1121838, “Synthesis and anticholinergic properties of the enantiomers of 4-(isopropylamino)-2-(2-pyridyl)-2-phenylbutyramide, the mono-N-dealkylated metabolite of disopyramide” (J Med Chem, 1981).
